# According to US10233186B2, “Inhibitors of activin receptor-like kinase” (BLUEPRINT MEDICINES CORPORATION, priority 2016, dated 2019):
# Read-outs that look alike come from different tables or passages of the source.
# Assays:
# [1] = target: T1, ALK2 R206H (GST-tagged mutant ALK2) (Homo sapiens, UniProt Q04771, R206H); test: ALK binding assay (LANTHASCREEN TR-FRET competitive binding, displacement of Kinase Tracer 178)
# T1 construct: purchased Carna Bioscience or ThermoFisher 09-148 or PV6232
# T1 sequence (Q04771 21-509 R206H): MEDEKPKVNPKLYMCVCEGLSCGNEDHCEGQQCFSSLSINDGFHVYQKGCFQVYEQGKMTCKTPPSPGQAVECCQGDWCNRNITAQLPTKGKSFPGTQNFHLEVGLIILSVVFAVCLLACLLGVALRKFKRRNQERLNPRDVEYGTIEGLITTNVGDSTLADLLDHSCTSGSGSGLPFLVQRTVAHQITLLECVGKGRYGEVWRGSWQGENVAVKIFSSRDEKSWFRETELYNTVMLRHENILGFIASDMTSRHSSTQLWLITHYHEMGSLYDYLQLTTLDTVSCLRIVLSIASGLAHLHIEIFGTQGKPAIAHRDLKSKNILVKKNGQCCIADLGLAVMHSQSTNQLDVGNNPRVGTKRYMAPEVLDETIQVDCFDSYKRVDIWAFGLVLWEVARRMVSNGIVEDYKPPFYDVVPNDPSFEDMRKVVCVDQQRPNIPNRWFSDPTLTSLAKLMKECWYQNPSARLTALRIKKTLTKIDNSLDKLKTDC
# human ALK2 R206H = target: T2, human ALK2 R206H (Homo sapiens, UniProt Q04771, R206H); test: Cell-based ALK2-R206H cell activity assay (Smad1-Ser463/Ser465 phosphorylation by AlphaLISA in HEK293-ALK2-R206H cells)
# T2 construct: expressed in transfected cells; host or cells: HEK293 (ATCC CRL1573), lentivirus transduction, blasticidin selection
# T2 sequence (Q04771 21-509 R206H): T1 sequence (Q04771 21-509 R206H)
# In short: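 Stable HEK293 cells expressing C-terminally FLAG-tagged human ALK2 R206H (lentiviral, blasticidin-selected) were treated with compounds in 10-point, 3-fold dilutions from 10 μM or 1 μM top, in duplicate. Smad1 Ser463/Ser465 phosphorylation was read by AlphaLISA.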
# [2] = ALK2 R206H, LANTHASCREEN TR-FRET competitive binding, read-out: Binding Assay (IC50)
# [3] = read-out: Cell Line (Cell Assay IC50)
smiles,measurement,setting,value
"O=C(OC(CO)CO)N1CCN(c2ccnn3cc(-c4ccc(C5CCNCC5)cc4)cc23)CC1 [Compound 789, 1,3-dihydroxypropan-2-yl 4-(6-(4-(piperidin-4-yl)phenyl)pyrrolo[1,2-b]pyridazin-4-yl)piperazine-1-carboxylate]",IC50,[1]; [2],< 10 nM
same,IC50,human ALK2 R206H; [3],> 500 nM
CC(C)N[C@H](CO)c1ccc(-c2cc3c(N4CCN(C(=O)OC5COC5)CC4)ccnn3c2)cc1 [Compound 791],IC50,[1]; [2],< 10 nM
same,IC50,human ALK2 R206H; [3],< 100 nM
CC(C)N[C@@H](CO)c1ccc(-c2cc3c(N4CCN(C(=O)OC5COC5)CC4)ccnn3c2)cc1 [Compound 792],IC50,[1]; [2],< 10 nM
same,IC50,human ALK2 R206H; [3],< 100 nM
[2H]C([2H])([2H])C([2H])([2H])OC(=O)N1CCN(c2ccnn3cc(-c4ccc([C@@]5(OCC)CCCNC5)cn4)cc23)CC1 [Compound 793],IC50,[1]; [2],< 10 nM
same,IC50,human ALK2 R206H; [3],< 100 nM
[2H]C([2H])([2H])C([2H])([2H])OC(=O)N1CCN(c2ccnn3cc(-c4ccc([C@]5(OCC)CCCNC5)cn4)cc23)CC1 [Compound 794],IC50,[1]; [2],< 10 nM
same,IC50,human ALK2 R206H; [3],< 100 nM
CC(C)N1CCC(c2ccc(-c3cc4c(N5CCN(C(=O)OC6CC6)CC5)ccnn4c3)cc2)CC1 [Compound 795],IC50,[1]; [2],< 10 nM
same,IC50,human ALK2 R206H; [3],< 100 nM
CCOC(=O)N1CCN(c2ccnn3cc(-c4ccc([C@]5(OC)CCCNC5)cn4)cc23)CC1 [Compound 796],IC50,[1]; [2],< 10 nM
same,IC50,human ALK2 R206H; [3],< 100 nM
CCO[C@@]1(c2ccc(-c3cc4c(N5CCN(C(=O)NC(C)C)CC5)ccnn4c3)nc2)CCCNC1 [Compound 797],IC50,[1]; [2],< 10 nM
same,IC50,human ALK2 R206H; [3],< 100 nM
CCO[C@]1(c2ccc(-c3cc4c(N5CCN(C(=O)NC(C)C)CC5)ccnn4c3)nc2)CCCNC1 [Compound 798],IC50,[1]; [2],< 10 nM
same,IC50,human ALK2 R206H; [3],< 100 nM
COC1(c2ccc(-c3cc4c(N5CCN(C(=O)OC6COC6)CC5)ccnn4c3)cc2)CCOCC1 [Compound 799],IC50,[1]; [2],< 10 nM
same,IC50,human ALK2 R206H; [3],< 100 nM
CO[C@]1(c2ccc(-c3cc4c(N5CCN(C(=O)OC6COC6)CC5)ccnn4c3)nc2)CCCNC1 [Compound 800],IC50,[1]; [2],< 10 nM
same,IC50,human ALK2 R206H; [3],< 100 nM
CO[C@@]1(c2ccc(-c3cc4c(N5CCN(C(=O)OC6COC6)CC5)ccnn4c3)nc2)CCCNC1 [Compound 801],IC50,[1]; [2],< 10 nM
same,IC50,human ALK2 R206H; [3],< 100 nM
CCOC(=O)N1CCN(c2ccnn3cc(-c4ccc(C5(OC)CCNC(C)(C)C5)cn4)cc23)CC1 (stereo not drawn) [Compound 802],IC50,[1]; [2],< 10 nM
same,IC50,human ALK2 R206H; [3],< 100 nM
CC(C)NC(C)(CO)c1ccc(-c2cc3c(N4CCN(C(=O)OC5COC5)CC4)ccnn3c2)cc1 (stereo not drawn) [Compound 804],IC50,[1]; [2],< 10 nM
same,IC50,human ALK2 R206H; [3],< 100 nM
CCN(CC)[C@@H](CO)c1ccc(-c2cc3c(N4CCN(C(=O)OC5COC5)CC4)ccnn3c2)cc1 [Compound 805],IC50,[1]; [2],< 10 nM
same,IC50,human ALK2 R206H; [3],< 100 nM
O=C(C1CC1)N1CCN(c2ccnn3cc(-c4ccc(C5(C(F)(F)F)CCNCC5)cc4)cc23)CC1 [Compound 808],IC50,[1]; [2],< 10 nM
same,IC50,human ALK2 R206H; [3],< 100 nM
CO[C@@]1(c2ccc(-c3cc4c(N5CCN(C(=O)[C@H]6C[C@H](C#N)C6)CC5)ccnn4c3)cc2)CCCNC1 [Compound 809],IC50,[1]; [2],< 10 nM
same,IC50,human ALK2 R206H; [3],< 100 nM
CC(C)N1CCC[C@@H](c2ccc(-c3cc4c(N5CCN(C(=O)OCCC#N)CC5)ccnn4c3)cc2)C1 [Compound 810],IC50,[1]; [2],< 10 nM
same,IC50,human ALK2 R206H; [3],< 100 nM
CC(C)N1CCC(CO)(c2ccc(-c3cc4c(N5CCN(C(=O)C6CC6)CC5)ccnn4c3)cc2)CC1 [Compound 811],IC50,[1]; [2],< 10 nM
same,IC50,human ALK2 R206H; [3],< 100 nM
CC(C)N1CCC(c2ccc(-c3cc4c(N5CCN(C(=O)C6CCOC6)CC5)ccnn4c3)cc2)CC1 (stereo not drawn) [Compound 812],IC50,[1]; [2],< 10 nM
same,IC50,human ALK2 R206H; [3],100 to 500 nM
CC1(C)CC(O)(c2ccc(-c3cc4c(N5CCN(C(=O)C6CC6)CC5)ccnn4c3)cc2)CC(C)(C)N1 [Compound 813],IC50,[1],< 10 nM
same,IC50,human ALK2 R206H; Cell Line (Cell Assay IC50),< 100 nM
[2H]C1(OC(=O)N2CCN(c3ccnn4cc(-c5ccc(C6CCN(C(C)C)CC6)cc5)cc34)CC2)COC1 [Compound 814],IC50,[1]; [2],< 10 nM
same,IC50,human ALK2 R206H; [3],< 100 nM
CCO[C@]1(c2ccc(-c3cc4c(N5CCN(C(=O)OC6COC6)CC5)ccnn4c3)cc2)CCCNC1 [Compound 815],IC50,[1]; [2],< 10 nM
same,IC50,human ALK2 R206H; [3],< 100 nM
CCO[C@@]1(c2ccc(-c3cc4c(N5CCN(C(=O)OC6COC6)CC5)ccnn4c3)cc2)CCCNC1 [Compound 816],IC50,[1]; [2],< 10 nM
same,IC50,human ALK2 R206H; [3],< 100 nM
COC1(c2ccc(-c3cc4c(N5CCN(C(=O)NC(C)C)CC5)ccnn4c3)nc2)CCNC(C)(C)C1 (stereo not drawn) [Compound 817],IC50,[1]; [2],< 10 nM
same,IC50,human ALK2 R206H; [3],< 100 nM
CCO[C@]1(c2ccc(-c3cc4c(N5CCN(C(=O)OC6COC6)CC5)ccnn4c3)nc2)CCCNC1 [Compound 818],IC50,[1]; [2],< 10 nM
same,IC50,human ALK2 R206H; [3],< 100 nM
CCO[C@@]1(c2ccc(-c3cc4c(N5CCN(C(=O)OC6COC6)CC5)ccnn4c3)nc2)CCCNC1 [Compound 819],IC50,[1]; [2],< 10 nM
same,IC50,human ALK2 R206H; [3],< 100 nM
CCOC(=O)N1CCN(c2ccnn3cc(-c4ccc(C5(OC)CCN(C(C)C)CC5)cn4)cc23)CC1 [Compound 820],IC50,[1]; [2],< 10 nM
same,IC50,human ALK2 R206H; [3],< 100 nM
CCOC1(c2ccc(-c3cc4c(N5CCN(C(=O)OC6COC6)CC5)ccnn4c3)nc2)CCOCC1 [Compound 821],IC50,[1]; [2],< 10 nM
same,IC50,human ALK2 R206H; [3],< 100 nM
CC(C)NC(=O)N1CCN(c2ccnn3cc(-c4ccc(C5(C(F)(F)F)CCNCC5)cc4)cc23)CC1 [Compound 823],IC50,[1]; [2],< 10 nM
same,IC50,human ALK2 R206H; [3],< 100 nM
COCC1(c2ccc(-c3cc4c(N5CCN(C(=O)C6CC6)CC5)ccnn4c3)cc2)CCN(C(C)C)CC1 [Compound 824],IC50,[1]; [2],< 10 nM
same,IC50,human ALK2 R206H; [3],< 100 nM
CC(C)N1CCC[C@@H](c2ccc(-c3cc4c(N5CCN(C(=O)O[C@@H]6CCOC6)CC5)ccnn4c3)cc2)C1 [Compound 825],IC50,[1]; [2],< 10 nM
same,IC50,human ALK2 R206H; [3],100 to 500 nM
CC(C)N1CCC[C@@H](c2ccc(-c3cc4c(N5CCN(C(=O)O[C@H]6CCOC6)CC5)ccnn4c3)cc2)C1 [Compound 826],IC50,[1]; [2],< 10 nM
same,IC50,human ALK2 R206H; [3],< 100 nM
CC(C)N1CCC[C@@H](c2ccc(-c3cc4c(N5CCN(C(=O)OC6(C)COC6)CC5)ccnn4c3)cc2)C1 [Compound 827],IC50,[1]; [2],< 10 nM
same,IC50,human ALK2 R206H; [3],100 to 500 nM
CC1OCC1OC(=O)N1CCN(c2ccnn3cc(-c4ccc([C@@H]5CCCN(C(C)C)C5)cc4)cc23)CC1 (stereo partly drawn) [Compound 828],IC50,[1]; [2],< 10 nM
same,IC50,human ALK2 R206H; [3],100 to 500 nM
COC1(c2ccc(-c3cc4c(N5CCN(C(=O)NC(C)C)CC5)ccnn4c3)cc2)CCN(C(C)C)CC1 [Compound 829],IC50,[1]; [2],< 10 nM
same,IC50,human ALK2 R206H; [3],< 100 nM
CCOC(=O)N1CCN(c2ccnn3cc(-c4ccc(C5(OCC)CCN(C(C)C)CC5)cc4)cc23)CC1 [Compound 831],IC50,[1]; [2],< 10 nM
same,IC50,human ALK2 R206H; [3],< 100 nM
CC(C)N1CCC(c2ccc(-c3cc4c(N5CCN(C(=O)SC6COC6)CC5)ccnn4c3)cc2)CC1 [Compound 832],IC50,[1]; [2],< 10 nM
same,IC50,human ALK2 R206H; [3],< 100 nM
COC1(c2ccc(-c3cc4c(N5CCN(C(=O)OC6COC6)CC5)ccnn4c3)nc2)CCNC(C)(C)C1 (stereo not drawn) [Compound 833],IC50,[1]; [2],< 10 nM
same,IC50,human ALK2 R206H; [3],< 100 nM
CCOC(=O)N1CCN(c2ccnn3cc(-c4ccc(C5(OC)CCN(C6COC6)CC5)cn4)cc23)CC1 [Compound 834],IC50,[1]; [2],< 10 nM
same,IC50,human ALK2 R206H; [3],< 100 nM
CCOC(=O)N1CCN(c2ccnn3cc(-c4ccc(C5(OCC)CCN(C(C)C)CC5)cn4)cc23)CC1 [Compound 835],IC50,[1]; [2],< 10 nM
same,IC50,human ALK2 R206H; [3],< 100 nM
CC(C)N1CCC(c2ccc(-c3cc4c(N5CCN(C(=O)OC(CO)CO)CC5)ccnn4c3)cc2)CC1 [Compound 836],IC50,[1]; [2],< 10 nM
same,IC50,human ALK2 R206H; [3],100 to 500 nM
